Measured values: patent US20090156399A1, “Synergistic Insecticide Mixtures” (Bayer CropScience AG, priority 2005, published 2009)

System: Myzus persicae
Test: Myzus persicae test (cabbage leaf dip)
Type: in vivo
Text: The expected activity for a given combination of two active compounds can be calculated (cf. COLBY, S. R.; “Calculating Synergistic and Antagonistic Responses of Herbicide Combinations”, Weeds 15, pages 20-22, 1967):
if • X=the kill rate, expressed in % of the untreated control, when employing active compound A at an application rate of m ppm, • Y=the kill rate, expressed in % of the untreated control, when employing active compound B at an application rate of n ppm, • E=the kill rate, expressed in % of the untreated control, when employing active compounds A and B at application rates of m and n ppm, then
If the actual insecticidal kill rate is higher than the calculated one, the kill rates of the combination are superadditive, i.e. a synergistic effect is present. In this case, the kill rate that is actually observed has to be higher than the value, calculated using the formula above, for the expected kill rate (E).
To produce a suitable preparation of active compound, 1 part by weight of active compound is mixed with the stated amounts of solvent and emulsifier, and the concentrate is diluted with emulsifier-containing water to the desired concentration. […]
After the desired period of time, the kill in % is determined. […] The determined kill rates are entered into Colby's formula (see page 27).

Row | Structure (SMILES) | Kill in % after 6d (0.16 ppm, cabbage leaves dipped, after 6 d) | Kill in % after 1d (0.8 ppm, cabbage leaves (Brassica oleracea) dipped, after 1 d)
1 | CN/C(=N\[N+](=O)[O-])NCc1cnc(Cl)s1 [Clothianidin] | 0% | –
2 | N#C/N=C1\SCCN1Cc1ccc(Cl)nc1 [Thiacloprid] | – | 30%
